Results published in PMC12742849 (Protein & Cell, 2025).

Legend:
[1] = molecular target: GST-tagged Francisella RibD (Francisella tularensis, UniProt A0Q460); settings: substrate generated in situ from GTP by E. coli RibA; with and without PEP
[2] = molecular target: ALFA-tagged RibD (RibD-ALFA), F. novicida (Francisella novicida); assay: pull-down

Chain of GST-tagged Francisella RibD (A0Q460 1-355): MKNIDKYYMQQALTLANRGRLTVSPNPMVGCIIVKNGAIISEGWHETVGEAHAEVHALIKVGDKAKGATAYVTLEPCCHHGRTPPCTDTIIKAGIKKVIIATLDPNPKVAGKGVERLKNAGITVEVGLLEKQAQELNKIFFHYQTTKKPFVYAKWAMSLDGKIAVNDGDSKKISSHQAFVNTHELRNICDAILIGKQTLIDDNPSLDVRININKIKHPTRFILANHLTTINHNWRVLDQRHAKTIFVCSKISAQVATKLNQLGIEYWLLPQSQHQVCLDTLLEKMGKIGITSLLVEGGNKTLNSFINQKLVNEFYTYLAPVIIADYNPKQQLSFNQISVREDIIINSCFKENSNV

Compound	fluorescence of the RibD reaction product (ex 408 nm, em 485 nm) [1]	stoichiometry N [2]
Nc1nc(N[C@@H]2O[C@H](COP(=O)(O)O)[C@@H](O)[C@H]2O)c(N)c(=O)[nH]1 [2,5-diamino-6-ribosyl-amino-4(3H) pyrimidinedione 5′-phosphate]	Results showed similar activity for both, with PEP having the same effect on each	
FLAG-tagged enolase (enolase-FLAG), F. novicida (enzyme)		1
